US20090170759A1, “NEUROPROTECTIVE PEPTIDES” (priority 2007, published 2009)

Legend:
rat hippocampal cultures = experiment: Neurite outgrowth assay (MAP2-FITC immunofluorescence), hippocampal cultures; format: cell-based; conditions: for neurite outgrowth in rat hippocampal cultures (in words): figure legends
From the text: (§1) Dissociated hippocampal and cortical cell cultures were established from embryonic day 18 rat fetuses as previously described (Mattson et al., 1994). Briefly, fetuses were removed via cesarean section from pregnant moms (Sprague-Dawley) anesthetized with halothane according to the AVMA Panel on Euthanasia. Pups were decapitated and the brains were removed and placed in HEPES-buffered Hank's Balanced Salt solution (HBSS; Gibco). The hippocampi and cortices were dissected out and pooled according to tissue-type. Tissue was trypsinized for 15 min (1 mg/ml trypsin-HBSS; Worthington), rinsed with fresh HBSS, incubated in trypsin inhibitor (1 mg/ml; Sigma) for 5 min, rinsed again with fresh HBSS and then triturated in 1 ml fresh HBSS with a fire-polished glass pipette. Dissociated cells were seeded at 30,000 cells/well onto poly-D-lysine coated 96-well plates (Collaborative BioScience). Each well contained 100 μl of Eagle's Minimal Essential Media (MEM; Gibco) supplemented with 26 mM NaHCO3 (Sigma), 56 mM glucose (Sigma), 15 mM KCl (Sigma), 1 mM sodium pyruvate (Sigma), 1.1 mM L-glutamine (Sigma), 10% (v/v) heat-inactivated fetal bovine serum (Hyclone), and 0.001% gentamicin sulfate (Sigma) (pH 7.4). Cells were allowed to attach for 24 h in a humidified 37° C. 5% CO2 incubator before experimental treatment. The culture media was aspirated and exchanged with fresh media every three days.
(§2) Twenty-four hours after plating, cultures were treated with vehicle (PBS+0.1% BSA), 100 ng of various growth factors (brain derived neurotrophic factor (BDNF; Promega), glial-derived neurotrophic factor (GDNF; Promega), nerve growth factor (NGF; Boehringer Mannheim), basic fibroblast growth factor (bFGF; Boehringer Mannheim), insulin-like growth factor-1 (IGF-1; Boehringer Mannheim), neurotrophin-3 (NT3; Calbiochem), neurotrophin-4 (NT4; Calbiochem), ciliary neurotrophic factor (CNTF; Calbiochem), epidermal growth factor (EGF; Calbiochem), vascular endothelial growth factor (VEGF; Calbiochem)), or rhEPO (prepared same as above; 10 fM-10 nM)). Each treatment condition was run in quadruplicate or octuplicate. On the third day in culture, the media was aspirated off and replaced with fresh media and test compound. At one week in culture, the cells were fixed with 10% phosphate-buffered formalin for 15 min, then rinsed with DPBS (Sigma) and placed in blocking serum for 30 min (horse serum; 1:50 dilution in DPBS; Vector Labs). Cultures were rinsed again with DPBS and then incubated in primary antibody for 2 hr (microtubule-associated protein-2 (MAP-2) is a selective marker for dendritic processes; anti-mouse monoclonal (Chemicon); 1:1000 dilution of MAP-2 in antibody diluent (Zymed)). Negative control wells were incubated in antibody diluent alone. Background signal was determined by blank wells (cell-free) incubated with or without antibody. Cultures were rinsed again with DPBS and then placed in fluorescein for 1 hr (FITC; anti-mouse IgG; rat adsorbed; 1:50 dilution in DPBS; Vector Labs). Cultures were rinsed a final time with DPBS and then the plates were read on a Cytofluor 4000 fluorescence plate reader. Neurite outgrowth was expressed as percent change from control (vehicle; mean fluorescence±SD).
(§3) Dissociated hippocampal and cortical cell cultures were established from embryonic day 18 rat fetuses as previously described (Mattson et al., 1994). Briefly, fetuses were removed via cesarean section from pregnant moms (Sprague-Dawley) anesthetized with halothane according to the AVMA Panel on Euthanasia. Pups were decapitated and the brains were removed and placed in HEPES-buffered Hank's Balanced Salt solution (HBSS; Gibco). The hippocampi and cortices were dissected out and pooled according to tissue-type. […]

[1] = tested on: rat cerebral cortical cultures; experiment: Neurite outgrowth assay (MAP2-FITC immunofluorescence), cortical cultures; format: cell-based; conditions: figure legends
From the text: as §1, §2, §3

Sequence | neurite outgrowth in rat hippocampal cultures (in words) (rat hippocampal cultures) | neurite outgrowth in rat cerebral cortical cultures (in words) [1] | neurite outgrowth increase over vehicle at peak activity, hippocampal cultures (rat hippocampal cultures; Example 4, 10 fM-10 nM tested)
GGTASCHFGPLTWVCKPQGG [EMP-6] | promotes neurite outgrowth | promotes neurite outgrowth | 
GGTYSCFGPLTWVCKPQGG [EMP-27] | promotes neurite outgrowth | promotes neurite outgrowth | 
GGTYSCHFAPLTWVCKPQGG [EMP-9] | promotes neurite outgrowth | promotes neurite outgrowth | 
GGTYSCHFGPLTWVCKPQGG [EMP-1] | promotes neurite outgrowth | promotes neurite outgrowth | 
YCHFGPLTWVC [EMP-23] | promotes neurite outgrowth | promotes neurite outgrowth | 43-46%
